According to ChEMBL document CHEMBL3045758, “Quantitative Structure-Activity Relationships of Fungicidal N-Phenylformamidoximes” (J Pestic Sci, 1992):

What was measured:
Botrytis cinerea [1] = test: Fungicidal activity against benzimidazole-resistant Botryotinia fuckeliana at 200 ppm after 48 hr by poisoned food technique; type: functional
Phaseolus vulgaris = test: Phytotoxicity against Phaseolus vulgaris (kidney bean) assessed as necrosis of leaf at 100 ppm after 7 days in greenhouse conditions; type: organism-based; settings: in vivo, 168 h
[2] = 1-octanol/water distribution coefficient, log P of the compound; type: physicochemical
Botrytis cinerea [3] = test: Fungicidal activity against benzimidazole-resistant Botryotinia fuckeliana at 6.2 ppm after 48 hr by poisoned food technique; type: functional
Botrytis cinerea [4] = test: Fungicidal activity against benzimidazole-resistant Botryotinia fuckeliana after 48 hr by poisoned food technique; type: functional, organism-based
Botrytis cinerea [5] = test: Fungicidal activity against benzimidazole-resistant Botryotinia fuckeliana infected kidney bean leaf at 100 ppm after 7 days in greenhouse conditions by detached leaf test; type: functional
Botrytis cinerea [6] = test: Fungicidal activity against benzimidazole-resistant Botryotinia fuckeliana at 25 ppm after 48 hr by poisoned food technique; type: functional
Botrytis cinerea [7] = test: Fungicidal activity against benzimidazole-sensitive Botryotinia fuckeliana after 48 hr by poisoned food technique; type: functional, organism-based
Botrytis cinerea [8] = test: Resistance ratio of EC50 for benzimidazole-resistant Botryotinia fuckeliana to EC50 for benzimidazole-sensitive Botryotinia fuckeliana; type: functional
Botrytis cinerea [9] = test: Ratio of DMPF EC50 to compound EC50 for benzimidazole-resistant Botryotinia fuckeliana; type: functional
[10] = Botrytis cinerea, 48 h, read-out: pEC50 (converted)

Row | Compound | Activity (Botrytis cinerea [1]) [%] | Activity (Phaseolus vulgaris) | logP [2] | Activity (Botrytis cinerea [3]) [%] | EC50 (Botrytis cinerea [4]; [10]) [µM] | Activity (Botrytis cinerea [5]) [%] | Activity (Botrytis cinerea [6]) [%] | EC50 (Botrytis cinerea [4]) [ppm] | EC50 (Botrytis cinerea [7]) [ppm] | Ratio EC50 (Botrytis cinerea [8]) | Ratio EC50 (Botrytis cinerea [9])
1 | CCO/N=C/Nc1cc(Cl)cc(Cl)c1 | 100 | <= 10% | 3 | <25 | 12 | <25 | 26 |  |  |  | 
2 | CCO/N=C/Nc1cc(OCC)c(OCC)c(OCC)c1 [N'-ETHOXY-N-(3,4,5-TRIETHOXYPHENYL)FORMIMIDAMIDE] | 100 | Non-toxic |  | <25 |  | <25 | 26 |  |  |  | 
3 | CCO/N=C/Nc1ccc(OCC)c(Cl)c1 [N-(3-CHLORO-4-ETHOXYPHENYL)-N'-ETHOXYFORMIMIDAMIDE] | 100 | Non-toxic |  | <25 |  | <25 | 26 |  |  |  | 
4 | CCO/N=C/Nc1ccccc1Cl | 100 | <= 10% |  | <25 |  | <25 | <25 |  |  |  | 
5 | CO/N=C/Nc1cc(Cl)cc(Cl)c1 |  |  |  |  |  |  |  | 3 | 50 | 10000 | 
6 | CCO/N=C/Nc1cc(C)cc(C)c1OCC [N'-ETHOXY-N-(2-ETHOXY-3,5-DIMETHYLPHENYL)FORMIMIDAMIDE] | 100 | Non-toxic |  | 50 |  | <25 | 100 |  |  |  | 
7 | C#CCc1c(Cl)cc(N/C=N/OC)cc1Cl |  | Non-toxic | 3.3 |  | 0.0182 |  |  | 0.005 | 30 | 10 | 600
8 | CCO/N=C/Nc1ccc(OCC)cc1 | 50 | Non-toxic |  | <25 |  | <25 | <25 |  |  |  | 
9 | CCO/N=C/Nc1c(Cl)cc(Cl)cc1Cl [N'-ETHOXY-N-(2,4,6-TRICHLOROPHENYL)FORMIMIDAMIDE] | 100 | 11% |  | <25 |  | <25 | <25 |  |  |  | 
10 | CCO/N=C/Nc1ccc(Cl)cc1 | 70 | Non-toxic |  | <25 |  | <25 | <25 |  |  |  | 
11 | CCO/N=C/Nc1cccc(CC)c1 | 70 | Non-toxic |  | <25 |  | <25 | <25 |  |  |  | 
12 | CCO/N=C/Nc1cc(OCC)ccc1OCC | 100 | Non-toxic |  | 70 |  | <25 | 100 |  |  |  | 
13 | CCO/N=C/Nc1c(Cl)cccc1Cl | 90 | > 31% |  | <25 |  | <25 | <25 |  |  |  | 
14 | CCO/N=C/Nc1cc(Cl)ccc1OCC [N-(5-CHLORO-2-ETHOXYPHENYL)-N'-ETHOXYFORMIMIDAMIDE] | 100 | <= 10% |  | <25 |  | <25 | 100 |  |  |  | 
15 | CCO/N=C/Nc1ccccc1CC | 100 | Non-toxic |  | 26 |  | <25 | 100 |  |  |  | 
16 | CCO/N=C/Nc1cc(Cl)c(OCC)c(Cl)c1OCC | 50 | Non-toxic |  | <25 |  | <25 | <25 |  |  |  | 
17 | CCO/N=C/Nc1cc(C)cc(C)c1 | 90 | Non-toxic |  | <25 |  | <25 | <25 |  |  |  | 
18 | CCO/N=C/Nc1ccc(OCC)c(C)c1 [N'-ETHOXY-N-(4-ETHOXY-3-METHYLPHENYL)FORMIMIDAMIDE] | 100 | 11% |  | <25 |  | <25 | <25 |  |  |  | 
19 | CCO/N=C/Nc1cc(Cl)c(Cl)cc1Cl [N'-ETHOXY-N-(2,4,5-TRICHLOROPHENYL)FORMIMIDAMIDE] | 26 | Non-toxic |  | <25 |  | <25 | <25 |  |  |  | 
20 | CCO/N=C/Nc1cccc(Cl)c1Cl | 100 | 11% |  | <25 |  | <25 | <25 |  |  |  | 
